Source: ChEMBL document CHEMBL1122661, “Vinylogous amino acid esters: a new class of inactivators for thiol proteases” (J Med Chem, 1984)
Calls of active or inactive are those of the source. The calls are words filed in the database; no cut-off is given here. Where a SMILES comes first, the peptide text is derived from it.

How the values were obtained:
Papain [1] = target: T1, Papain (Carica papaya, UniProt P00784); assay: Inhibitory activity against papain; Weak competitive inhibitor
T1 sequence (P00784 whole entry): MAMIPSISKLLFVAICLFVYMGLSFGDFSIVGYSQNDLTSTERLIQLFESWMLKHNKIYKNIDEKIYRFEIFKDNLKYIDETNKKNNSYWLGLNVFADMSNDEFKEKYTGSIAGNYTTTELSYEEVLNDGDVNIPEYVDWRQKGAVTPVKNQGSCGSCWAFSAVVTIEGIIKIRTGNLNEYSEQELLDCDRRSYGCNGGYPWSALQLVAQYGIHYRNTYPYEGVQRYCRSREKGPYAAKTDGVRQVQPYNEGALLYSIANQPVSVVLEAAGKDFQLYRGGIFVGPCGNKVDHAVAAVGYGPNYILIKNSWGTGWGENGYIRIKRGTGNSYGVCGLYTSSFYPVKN

Papain (Carica papaya) [2] = target: T2, Papain (Carica papaya) (UniProt P00784); assay: Inhibitory activity against papain; No detectab inactivation
T2 sequence (whole entry): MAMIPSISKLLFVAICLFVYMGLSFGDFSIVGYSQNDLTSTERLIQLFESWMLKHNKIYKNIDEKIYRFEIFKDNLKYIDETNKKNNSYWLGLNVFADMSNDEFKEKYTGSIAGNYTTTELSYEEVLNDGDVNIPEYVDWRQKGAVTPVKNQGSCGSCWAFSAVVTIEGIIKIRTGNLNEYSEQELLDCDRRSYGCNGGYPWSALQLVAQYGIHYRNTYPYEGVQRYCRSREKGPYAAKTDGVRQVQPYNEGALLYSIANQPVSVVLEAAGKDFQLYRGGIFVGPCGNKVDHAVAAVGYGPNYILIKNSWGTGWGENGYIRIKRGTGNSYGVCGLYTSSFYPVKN

[3] = Inhibition of hydrolysis of Z-Gly-NPby administration of the compound
[4] = Inhibition of hydrolysis of Z-Gly-NP by administration of the 1 uM compound; Markedly inhibited
Papain [5] = target: T1, Papain; assay: Inhibitory activity against papain
Papain (Carica papaya) [6] = target: T2, Papain (Carica papaya); assay: Pseudo first order rate constant against papain
[7] = substrate: O=C(O)CNC(=O)OCc1ccccc1; assay: Papain-catalyzed hydrolysis was expressed as Km

C=CCNC(=O)C(Cc1ccccc1)NC(C)=O (stereo not drawn)
Ki (Papain [1]): > 5 mM

COC(=O)/C=C/C(Cc1ccccc1)NC(C)=O (stereo not drawn)
inhibition (Papain (Carica papaya) [2]): inactive

CC(=O)N[C@@H](Cc1ccccc1)C(=O)NCC(N)=O (Ac-Phe-Gly-NH2)
Ki [3]: 4.7 mM

COC(=O)/C=C/CNC(=O)C(Cc1ccccc1)NC(C)=O (stereo not drawn)
inhibition [4]: Markedly inhibited
Ki (Papain [5]): 0.026 mM
K2 (Papain (Carica papaya) [6]): 0.00182 s⁻¹

COC(=O)CCCNC(=O)C(Cc1ccccc1)NC(C)=O (stereo not drawn)
Ki (Papain [1]): > 5 mM

B1: Papain (Carica papaya), P00784 (protein)
chain: MAMIPSISKLLFVAICLFVYMGLSFGDFSIVGYSQNDLTSTERLIQLFESWMLKHNKIYKNIDEKIYRFEIFKDNLKYIDETNKKNNSYWLGLNVFADMSNDEFKEKYTGSIAGNYTTTELSYEEVLNDGDVNIPEYVDWRQKGAVTPVKNQGSCGSCWAFSAVVTIEGIIKIRTGNLNEYSEQELLDCDRRSYGCNGGYPWSALQLVAQYGIHYRNTYPYEGVQRYCRSREKGPYAAKTDGVRQVQPYNEGALLYSIANQPVSVVLEAAGKDFQLYRGGIFVGPCGNKVDHAVAAVGYGPNYILIKNSWGTGWGENGYIRIKRGTGNSYGVCGLYTSSFYPVKN
Km [7]: 10.3 µM
